US10208007B2, “Use of strigolactones and strigolactone analogs for treating proliferative conditions” (The State of Israel, Ministry of Agriculture & Rural …, priority 2011, dated 2019)

Legend:
[1] = tested on: Arabidopsis thaliana wild type root tips; assay: Root-tip structure and cellular morphology; assay type: in vivo; conditions: WT seedlings
Description: Seeds of homozygous lines of Arabidopsis thaliana wild type (WT; Columbia; Col-0) and max2-1 mutant (http://abrc.osu.edu/) were surface-sterilized and germinated on 1/2 Murashige and Skoog (MS) plates supplemented with 1% sucrose and solidified with 0.7% agar. Plates were incubated vertically in the dark at 4° C. for two days to synchronize germination. Three days after germination, seedlings were gently transferred using forceps to 1/2 MS plates containing various concentrations of GR-24 as a mixture of four diastereomers: (±)-GR-24 and (±)-2′-epi-GR-24. The root tip of the transferred seedling was marked on the plates. The plates remained unsealed to prevent accumulation of gases (e.g., ethylene), and were positioned in an upright 45° position, and incubated at 22° C. with a light intensity of […] m-2 s-1 provided by white fluorescent tubes and under a photoperiod of 16 hours exposure to light/8 hours in the dark for 6-12 days. […] GR-24, ST-357 and ST-362 were initially dissolved in acetone to give a 4.5 mM, 10 μM and 10 μM solutions, respectively, which were then further diluted with double-distilled sterile water (DDW). […] Where differences were recorded between non-treated and acetone controls, the comparison was made between GR-24, ST-357 and ST-362-treated and acetone-treated roots. […]

[2] = tested on: MCF-7 secondary mammospheres; assay: cells; assay type: cell-based; conditions: Homo sapiens, MCF7, 120 h
Description: Adherent cells were gently trypsinized, (0.05% trypsin/EDTA) washed twice in PBS and filtered through a […] cell sieve to obtain a single cell suspensions. Cells were diluted to a concentration of 10,000 cell/ml in serum-free phenol-red free MEBM (MEGM Bulletkit, Lonza) supplemented with 5 μg/ml bovine insulin, 20 ng/ml recombinant epidermal growth factor, 20 ng/ml basic fibroblast growth factor (Gibco), 1×B27 supplement, 0.5 μg/ml hydrocortisone (MEGM Bulletkit, Lonza). For MDA-MB-231 mammosphere cultures serum-free phenol red-free CnT-27 medium with growth additives (CellnTEC Advanced cell systems, Bern, Switzerland) was used as previously described. 0.1 ml was seeded per well of a Ultralow attachment 96 well plates. The following day the indicated doses of GR-24 (ppm) or vehicle alone (0.6% acetone f/c) were added. Media was replenished every 3-4 days. Self-renewal capacity of the mammospheres was determined by re-plating and producing further generations of mammospheres. Secondary mammospheres were cultivated by dissociation (trypsinization with gently vortexing) of 10-14 day old primary mammospheres. Single cell suspensions were obtained as described above.
Mammosphere viability was assessed by XTT assay (ATCC). 5 days after addition of the indicated concentrations of GR-24, cell viability was determined. […] To further investigate GR-24 induced inhibition of mammosphere formation, the expression of breast stem cells markers were examined.

HCT116 cells = assay: Annexin V / PI staining; assay type: cell-based, human; conditions: 48 hours, from 3.6%
Description: Cells were cultured for 48 hours under the same conditions as those used for the DNA content/cell cycle analysis. All the cells were collected and resuspended in 100 μl 1× Annexin V Binding Buffer (BD Biosciences, San Jose, Calif., USA). 2 μl FITC-Annexin V (BD Biosciences) was added and incubated for 10 min in the dark (room temperature). Cells were then stained with PI (Sigma, Saint Louis, Mo., USA) to a final concentration of 5 μg/ml and the cells were incubated at room temperature for 15 min in the dark. Then, 400 μl of Annexin V binding buffer were added and flow cytometry was performed using a BD FACSCalibur flow cytometer. Cells were considered to be apoptotic if they were Annexin V+/PI− (early apoptotic) and Annexin V+/PI+ (late apoptotic). Each analysis was performed using at least 20,000 events.
Chromosome condensation at mitosis is accompanied by phosphorylation of histone H3. Accordingly, in order to determine if cells were arresting at G2 or M phase, HCT116 cells were analyzed for pS10 Histone H3 following strigolactone analogs exposure. […] To further quantify whether the growth inhibition observed in-vitro following strigolactone treatment was due in part to apoptosis, HCT116 cells were dual stained with Annexin V and PI (Prodidium Iodide). Annexin V staining indicate the inversion of the inner leaflet of the plasma membrane an early event of apoptosis. Late apoptosis is characterized by loss of membrane integrity and cells become permeable to PI. […] Cells were incubated for 48 hours and then co-stained with annexin-V and PI (FIG. 12F). Following treatment with 10 ppm and 15 ppm MEB-55, the percentage of late apoptotic cell increased from 3.6% to 62% and 85% respectively (FIG. 12F, lower panel). […] Dual Annexin V/PI staining analysis was also carried out on two other colon cancer cell lines, (SW480, HT29) following strigolactone treatment. Increased apoptosis was also observed in these lines following MEB-55 treatment in a dose dependent manner (FIG. 12D).

[3] = read-out: Mammosphere viability

| Compound | Root tip morphology ([1]; 13.5 μM exogenously supplied) | Starch granules in the columella cells ([1]; 27 μM) | viability at 2.5 ppm [2, 3] [%] | viability at 5 ppm [2, 3] [%] | cytotoxicity at 5 ppm ([2]; read-out: Reduction of viability) [%] | Percentage of late apoptotic cells (Annexin V+/PI+) (HCT116 cells; 10 ppm) [%] | Percentage of late apoptotic cells (Annexin V+/PI+) (HCT116 cells; 15 ppm) [%] |
| --- | --- | --- | --- | --- | --- | --- | --- |
| CC1=C[C@H](O/C=C2/C(=O)O[C@@H]3c4ccccc4C[C@H]23)OC1=O (relative stereo) [GR-24, (3aR*,8bS*,E)-3-(((R*)-4-methyl-5-oxo-2,5-dihydrofuran-2-yloxy)methylene)-3,3a,4,8b-tetrahydro-2H-indeno[1,2-b]furan-2-one] | deformation of the root tips | abolished the starch granules | 68.6 | 16.4 | ~80 | – | – |
| CC1=CC(O/C=C2\Cc3c(n(C)c4cc(-c5cccs5)ccc34)C2=O)OC1=O (racemic) [MEB-55, (±) 2E-4-methyl-2-(4-methyl-5-oxo-2,5-dihydrofuran-2-yloxymethylene)-6-thiophen-2-yl-1,4-dihydro-2H-cyclopenta[b]indol-3-one] | – | – | – | – | – | 62 | 85 |
